Measured values taken from PMC4382718 (Carbohydrate research, 2015).
Read-outs that look alike come from different tables or passages of the source.

What was measured:
[1] = target: T1, dLManII (Drosophila melanogaster lysosomal α-mannosidase II) (Drosophila melanogaster, UniProt Q9VKV1); experiment: Class II α-mannosidase inhibition assay; type: biochemical
T1 sequence (Q9VKV1 25-1080): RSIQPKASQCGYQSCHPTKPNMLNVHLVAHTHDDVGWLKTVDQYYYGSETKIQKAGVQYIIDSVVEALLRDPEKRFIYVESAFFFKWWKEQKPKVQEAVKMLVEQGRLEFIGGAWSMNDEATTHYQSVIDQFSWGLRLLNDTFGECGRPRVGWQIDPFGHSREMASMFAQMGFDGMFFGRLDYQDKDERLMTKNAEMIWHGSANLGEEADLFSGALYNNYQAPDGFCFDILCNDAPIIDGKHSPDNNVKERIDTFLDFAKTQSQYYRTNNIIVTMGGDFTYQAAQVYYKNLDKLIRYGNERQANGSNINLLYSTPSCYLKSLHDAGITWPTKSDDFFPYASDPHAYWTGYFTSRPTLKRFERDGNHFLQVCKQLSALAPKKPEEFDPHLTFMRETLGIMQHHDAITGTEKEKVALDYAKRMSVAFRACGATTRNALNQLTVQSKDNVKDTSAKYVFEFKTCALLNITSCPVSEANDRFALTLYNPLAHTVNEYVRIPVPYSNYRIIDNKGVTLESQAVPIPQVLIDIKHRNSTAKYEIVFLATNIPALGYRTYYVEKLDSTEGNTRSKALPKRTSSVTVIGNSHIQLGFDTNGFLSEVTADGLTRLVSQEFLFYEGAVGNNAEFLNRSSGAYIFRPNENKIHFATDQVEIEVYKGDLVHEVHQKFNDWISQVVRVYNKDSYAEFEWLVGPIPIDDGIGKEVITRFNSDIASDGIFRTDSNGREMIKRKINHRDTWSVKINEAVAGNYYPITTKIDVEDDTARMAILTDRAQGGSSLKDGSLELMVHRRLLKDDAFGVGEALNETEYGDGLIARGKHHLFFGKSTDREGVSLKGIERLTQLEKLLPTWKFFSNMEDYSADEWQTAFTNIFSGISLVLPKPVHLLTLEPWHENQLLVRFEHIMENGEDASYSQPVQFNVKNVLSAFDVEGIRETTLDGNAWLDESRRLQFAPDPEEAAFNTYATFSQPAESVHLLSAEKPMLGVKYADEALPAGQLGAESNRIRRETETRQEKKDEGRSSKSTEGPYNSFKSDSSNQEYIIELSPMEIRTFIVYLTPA

[2] = target: T2, jack bean α-mannosidase (JBMan) (Canavalia ensiformis, UniProt C0HJB3); experiment: Jack bean α-mannosidase inhibition assay; type: biochemical
T2 sequence (C0HJB3 1-981): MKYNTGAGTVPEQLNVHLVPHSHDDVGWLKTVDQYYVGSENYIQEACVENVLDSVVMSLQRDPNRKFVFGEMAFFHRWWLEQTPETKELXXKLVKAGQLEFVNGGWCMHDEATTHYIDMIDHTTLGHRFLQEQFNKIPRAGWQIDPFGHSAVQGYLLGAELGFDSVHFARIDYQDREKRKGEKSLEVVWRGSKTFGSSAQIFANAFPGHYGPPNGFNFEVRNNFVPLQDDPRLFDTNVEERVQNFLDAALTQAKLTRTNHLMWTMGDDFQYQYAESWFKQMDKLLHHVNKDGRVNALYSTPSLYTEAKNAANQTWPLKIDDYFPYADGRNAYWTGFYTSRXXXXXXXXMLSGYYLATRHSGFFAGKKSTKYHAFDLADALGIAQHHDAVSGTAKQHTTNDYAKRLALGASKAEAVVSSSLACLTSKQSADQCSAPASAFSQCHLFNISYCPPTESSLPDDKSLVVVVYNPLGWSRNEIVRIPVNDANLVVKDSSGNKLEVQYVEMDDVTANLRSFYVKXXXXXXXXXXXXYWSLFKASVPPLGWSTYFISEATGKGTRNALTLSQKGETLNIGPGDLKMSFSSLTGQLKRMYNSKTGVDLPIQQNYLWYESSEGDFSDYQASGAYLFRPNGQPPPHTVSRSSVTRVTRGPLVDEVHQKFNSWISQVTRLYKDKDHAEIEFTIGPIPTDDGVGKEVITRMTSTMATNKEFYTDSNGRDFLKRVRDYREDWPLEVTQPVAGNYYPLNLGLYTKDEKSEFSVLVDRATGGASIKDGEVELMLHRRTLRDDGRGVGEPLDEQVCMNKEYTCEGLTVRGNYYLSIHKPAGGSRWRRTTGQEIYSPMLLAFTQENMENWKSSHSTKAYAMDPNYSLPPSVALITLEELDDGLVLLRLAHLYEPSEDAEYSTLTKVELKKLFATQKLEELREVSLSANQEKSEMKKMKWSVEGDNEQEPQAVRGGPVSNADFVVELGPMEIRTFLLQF

[3] = target: T3, Aspergillus saitoi α1,2-mannosidase (AspMan) (Aspergillus phoenicis, UniProt Q12563); type: biochemical
T3 sequence (Q12563 22-513): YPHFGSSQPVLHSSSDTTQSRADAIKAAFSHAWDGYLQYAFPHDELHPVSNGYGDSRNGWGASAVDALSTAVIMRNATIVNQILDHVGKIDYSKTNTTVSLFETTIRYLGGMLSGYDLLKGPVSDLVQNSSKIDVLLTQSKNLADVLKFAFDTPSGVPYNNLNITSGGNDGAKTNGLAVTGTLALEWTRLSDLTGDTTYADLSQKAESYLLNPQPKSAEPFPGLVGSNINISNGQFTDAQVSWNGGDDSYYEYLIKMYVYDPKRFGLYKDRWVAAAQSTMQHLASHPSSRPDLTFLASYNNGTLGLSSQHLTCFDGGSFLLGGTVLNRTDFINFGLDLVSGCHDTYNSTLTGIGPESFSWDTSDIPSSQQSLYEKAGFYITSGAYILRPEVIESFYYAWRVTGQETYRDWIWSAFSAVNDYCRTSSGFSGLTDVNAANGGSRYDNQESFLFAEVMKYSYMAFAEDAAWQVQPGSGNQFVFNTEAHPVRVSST

[4] = target: T4, dGMIIb (Drosophila melanogaster Co(II)-activated Golgi α-mannosidase IIb) (Drosophila melanogaster, UniProt Q9VF33); experiment: Class II α-mannosidase inhibition assay; type: biochemical
T4 sequence (Q9VF33 31-1249): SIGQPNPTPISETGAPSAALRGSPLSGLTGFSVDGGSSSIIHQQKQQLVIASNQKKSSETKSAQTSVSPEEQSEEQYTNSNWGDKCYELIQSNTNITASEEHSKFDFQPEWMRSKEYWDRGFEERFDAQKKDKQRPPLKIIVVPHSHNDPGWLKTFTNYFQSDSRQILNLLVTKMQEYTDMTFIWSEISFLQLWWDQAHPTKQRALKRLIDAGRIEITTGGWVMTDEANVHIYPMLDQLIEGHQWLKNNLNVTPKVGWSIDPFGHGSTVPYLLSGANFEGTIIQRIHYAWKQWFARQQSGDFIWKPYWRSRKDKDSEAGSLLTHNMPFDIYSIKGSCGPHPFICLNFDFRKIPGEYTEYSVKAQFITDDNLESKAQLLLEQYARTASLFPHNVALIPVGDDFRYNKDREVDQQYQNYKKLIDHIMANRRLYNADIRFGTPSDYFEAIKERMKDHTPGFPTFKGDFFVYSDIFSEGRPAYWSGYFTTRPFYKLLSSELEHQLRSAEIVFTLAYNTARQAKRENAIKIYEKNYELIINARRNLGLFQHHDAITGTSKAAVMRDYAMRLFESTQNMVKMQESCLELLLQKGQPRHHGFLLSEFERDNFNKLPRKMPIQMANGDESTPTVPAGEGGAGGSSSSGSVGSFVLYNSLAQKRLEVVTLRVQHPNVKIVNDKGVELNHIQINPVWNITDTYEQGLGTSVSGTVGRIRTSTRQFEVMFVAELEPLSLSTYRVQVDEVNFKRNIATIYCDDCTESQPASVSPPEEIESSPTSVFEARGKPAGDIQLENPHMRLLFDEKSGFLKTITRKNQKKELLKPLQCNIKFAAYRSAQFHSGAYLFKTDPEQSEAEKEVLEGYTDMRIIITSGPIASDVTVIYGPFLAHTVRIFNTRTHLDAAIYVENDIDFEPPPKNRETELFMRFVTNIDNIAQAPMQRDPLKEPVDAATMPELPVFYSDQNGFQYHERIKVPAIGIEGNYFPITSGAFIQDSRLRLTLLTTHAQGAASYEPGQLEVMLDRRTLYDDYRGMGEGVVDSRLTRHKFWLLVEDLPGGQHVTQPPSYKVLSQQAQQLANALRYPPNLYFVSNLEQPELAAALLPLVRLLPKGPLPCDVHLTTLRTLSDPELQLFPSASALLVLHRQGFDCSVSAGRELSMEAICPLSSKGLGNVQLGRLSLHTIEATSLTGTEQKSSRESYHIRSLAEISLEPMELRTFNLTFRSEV

[5] = target: dGMII (Drosophila melanogaster α-mannosidase II); conditions: read-out: Ki dGMII (printed in dGMIIb column); ref Shah et al.[41]; cited from earlier work
[6] = target: T2, jack bean α-mannosidase (JBMan); conditions: read-out: IC50 JBMan, cited from earlier work
[7] = target: T4, dGMIIb (Drosophila melanogaster Co(II)-activated Golgi α-mannosidase IIb); conditions: cited from earlier work

Structure (SMILES): OC[C@H]1O[C@H](n2cc(-c3ccccc3)nn2)[C@@H](O)[C@@H](O)[C@@H]1O [Compound 6, 1-α-D-mannopyranosyl-4-phenyl-1,2,3-triazole]
- IC50 [1]: 5000 µM
- IC50 [2]: 400 µM
- IC50 [3]: 50 µM
- selectivity ratio [IC50(GH38)/IC50(GH47)] ([3]; GH38 mannosidases vs GH47 AspMan): 100
- IC50 [4]: 5000 µM

Structure (SMILES): OC[C@H]1O[C@H](n2cc(CCc3ccccc3)nn2)[C@@H](O)[C@@H](O)[C@@H]1O [Compound 8, 1-α-D-mannopyranosyl-4-(2-phenylethyl)-1,2,3-triazole]
- IC50 [1]: 5000 µM
- IC50 [2]: 400 µM
- IC50 [3]: 250 µM
- IC50 [4]: 6000 µM

Structure (SMILES): O=C1N[C@@H]2[C@@H](O)[C@@H](O)[C@H](O)[C@@H](CO)N2C1=O [Kifunensine]
- Ki [5]: 5200 µM
- IC50 ([6]; ref Kayakiri et al.[42]): 120 µM

Structure (SMILES): O=S(=O)(Cc1ccccc1)[C@H]1O[C@H](CO)[C@@H](O)[C@H](O)[C@@H]1O [Compound 9, benzyl α-D-mannopyranosyl sulfone]
- IC50 ([2]; read-out: IC50 JBMan, pNP-Manp substrate, pH 4.5): 2000 µM
- IC50 ([7]; read-out: IC50 dGMIIb, ref Poláková et al.[30]): 2000 µM
- selectivity GMII vs LM ([7]; ref [30]): selective towards GMII

Structure (SMILES): OC[C@H]1O[C@H](n2cc(Cc3ccccc3)nn2)[C@@H](O)[C@@H](O)[C@@H]1O [Compound 7, 4-Benzyl-1-α-D-mannopyranosyl-1,2,3-triazole]
- IC50 [1]: 500 µM
- IC50 [2]: 1100 µM
- IC50 [3]: 100 µM
- IC50 [4]: 5000 µM

Structure (SMILES): CS[C@@H]1[C@@H](N)[C@@H](O)[C@@H](O)[C@H]1O [Mannostatin A, reference compound]
- IC50 [1]: 3 µM
- IC50 ([6]; ref Ogawa et al.[44]): 0.24 µM
- IC50 [4]: 0.15 µM
